From US9061994B1, “Materials and methods useful to induce vacuolization, cell death, or a combination thereof” (The University of Toledo, priority 2011, dated 2015) come the findings set out here.

Entries after “also recorded” stand apart in the source; their conditions may differ. Read-outs that look alike come from different tables or passages of the source.

The test system of data set [1] is U251 glioblastoma cells. Briefly: MTT cell viability assay. As to conditions: for IC50: Homo sapiens, U-251, 48 h. The class given is cell-based, human. A general note: Formazan colour is commonly taken as a measure of viable cells.
Data set [2] concerns temozolomide-resistant U251 cells (U251-TR). The experiment in a line: MTT cell viability assay, temozolomide-resistant cells. The class given is cell-based, human.
Data set [3] has as its system LN229, U2OS, MCF7, SW480 and PANC-1 cancer cell lines. The experiment in a line: MTT cell viability assay, other cancer cell lines. The data set is classed as cell-based. As to conditions: Homo sapiens; 10 μM MIPP; all of the cancer cell lines (FIG. 27); read-out: reduction of relative cell viability.
Data set [4] is described as follows: MTT cell viability assay, mammary epithelial cells. Conditions: human, MCF-10A mammary epithelial cells, 10 μM MIPP (FIG. 27), read-out: reduction in cell viability. The data set is classed as cell-based.
Data set [5] in a line: MTT cell viability assay, normal fibroblasts. The class given is cell-based. As to conditions: human, normal skin fibroblasts, 10 μM MIPP (FIG. 27), read-out: reduction in cell viability.
The subject of data set [6] is U251 glioblastoma cells. Briefly: Cell morphology / vacuolization by phase-contrast microscopy. The class given is cell-based, human.
Data set [7] deals with U251 glioblastoma cells. The experiment in a line: Colony-forming assay. The class given is cell-based, human. As to conditions: cells treated for 2 days (FIGS. 15, 40).
The subject of a further data set is U251-TR cells. The experiment in a line: Colony-forming assay, temozolomide-resistant cells. The class given is cell-based, human. Conditions: 10 μM MIPP, 2 days (FIG. 21). As for the experimental part: (§1) For colony-forming assays, cells were plated in 100 mm dishes at 2,500 (U251 and U251-TR) or 1,500 (all other cell lines) cells per dish. Beginning on the day after plating, the cells were exposed to 10 μM MIPP for 2 days, with the medium and drug replenished after 1 day. The cells were fed fresh medium without drug every 2 to 3 d for a period of 10-21 days. To visualize the colonies, the dishes were washed with PBS, fixed for 10 min with ice-cold 100% methanol, and stained with 1% crystal violet in 35% methanol. After 2-3 washes with water, colonies containing at least 50 cells were counted using a dissecting microscope or a Protocol 2 colony counter.

The test system of data set [8] is LN229, U2OS, MCF7, SW480 and PANC-1 cancer cell lines. The experiment in a line: Colony-forming assay, other cancer cell lines. The class given is cell-based, human. As to conditions: exposure for 2 days (FIG. 28). As for the experimental part:
as §1
Also disclosed herein is an analysis of the effects of the compound in several other cell lines. These include an additional glioma cell line (LN229), osteosarcoma cells (U2OS), and breast (MCF7), colon (SW480) and pancreatic (PANC-1) carcinoma cells. Similar to the results with U251 cells, 10 μM MIPP induced dramatic cytoplasmic vacuolization in all of the cell lines, as shown in FIG. 26.

The next data set deals with active Rac1. Briefly: Pull-down assay for activated Rac1. The data set is classed as cell-based, human. As to conditions: U251; 10 μM MIPP; 4 h or 24 h. As for the experimental part: (§2) Assays for activated Rac1 and Arf6 were performed using EZ-Detect Rac1 or Arf6 activation kits. These assays employ either a GST-fusion protein containing the p21-binding domain of p21-activated protein kinase 1 (PAK1) to selectively bind active Rac1 in whole cell lysates, or GST-GGA3 (Golgi-associated gamma adaptin ear-containing Arf binding protein 3) to pull down active Arf6. The active Rac1 or Arf6 collected on the glutathione beads were subjected to western blot analysis and the chemiluminescence signals were quantified using Alpha Innotech FluorChem HD2 imaging system. The values for active protein in each sample were normalized to α-tubulin. Results were expressed as either the total active Rac1 or Arf6, or the ratio of the active GTPase to the total Rac1 or Arf6 measured in aliquots of the cell lysate.

A further data set relates to active Arf6. The experiment in a line: Pull-down assay for activated Arf6. The data set is classed as cell-based, human. Conditions: U251; 10 μM MIPP; 4 h or 24 h. As for the experimental part: as §2
Another data set relates to active Rab5. Briefly: Pull-down assay for active Rab5. The data set is classed as cell-based, human. As to conditions: U251; 10 μM; 4 h and 24 h. As for the experimental part:
(§3) GST-fusion proteins were produced in E. coli BL21 (DE3) pLysS and the fusion proteins were bound to glutathione-sepharose 4B beads. Pull-down assays for active Rab5 using the GST-Rabaptin-5 beads were performed. Assays for active Rab7 were performed. For each determination cell lysates were prepared from ten pooled 10 cm cultures. Monoclonal antibodies against Rab5 or Rab7 were used to probe western blots of the proteins collected on the beads. Results were quantified and normalized as described above for Rac1 and Arf6.

The subject of a further data set is active Rab7. Briefly: Pull-down assay for active Rab7. The data set is classed as cell-based, human. As to conditions: U251; 10 μM; up to 24 h. As for the experimental part: as §3
Data set [9] relates to U251 glioblastoma cells. The experiment in a line: ATP level (CellTiter Glo). The class given is cell-based, human. Conditions: second day after addition of MIPP (FIG. 13). The text has this:
To compare the levels of ATP in MIPP-treated glioblastoma cells versus controls treated with an equivalent volume of DMSO, the cells were harvested by trypsinization and assayed using the CellTiter Glo kit from Promega according to the manufacturer's instructions.
For orientation: In ATP-based viability assays light output follows the ATP content of the culture.

A short description of data set [10]: Stability during workup, manipulation or storage. The data set is classed as physicochemical. As to conditions: among ester series 120, 125, 310, 309. As for the experimental part:
Expanding previous SAR studies of 2-indolyl alkyl substitutions, additional functionalized probes were prepared as depicted in Schemes 4-7. […] Excellent regioselectivity was achieved by the di-lithio species derived from 418 and sec-butyllithium in THF at −40° C. Cyclization and deprotection occurred in a one-pot fashion with excess TFA affording 5-methoxy-2-trifluoromethylindole (203). Synthesis of aldehyde 204 and condensation to the final trifluoromethyl target 124 were accomplished by standard methods. Alkyl carboxylates (301-304) were synthesized from commercially available acid 300 by Fisher esterification conditions using their corresponding alcohols (Scheme 4E, FIG. 78). Formylation reactions to yield aldehydes 305-308, followed by Claisen-Schmidt condensation to provide 120, 125, 310, 309, were conducted as previously described. […] Without wishing to be bound by theory, it is believed this is owing to its better leaving group among this series.

Data set [11] deals with U251 glioblastoma cells. The experiment in a line: Sulforhodamine B (SRB) growth inhibition assay. The data set is classed as cell-based, human. Conditions: U251; 48 h SRB; Table 1, Table 2 (FIG. 64), FIG. 63. As for the experimental part: Cells experiencing methuosis initially undergo extreme cytoplasmic vacuolization which can be readily assessed by phase contrast microscopy. As viability is compromised (usually between 24-48 h), the cells detach from the culture surface and lose membrane integrity. […] Although methuosis can occur in a broad spectrum of human tumor cell lines, SAR studies were carried out with U251 glioblastoma cells. Therefore, this cell line was used in the present evaluation.
Total protein in adherent cells was measured by the sulforhodamine B (SRB) colorimetric assay, following standard procedures for anticancer drug screening used by the U.S. National Cancer Institute. […] On the day after plating, four wells were assayed to establish a pre-drug (time-0) baseline. Test compounds were diluted as described above and added to the remaining wells. The medium and compounds were replenished after 24 hr. SRB assays were performed at a 48 h endpoint as described, using a SpectraMax Plus 384 plate reader (Molecular Devices, Sunnyvale, Calif.) to determine absorbance at 515 nm.
Cells were seeded in 96-well plates as described in the methods. After 24 h, each compound was added at the indicated concentrations and SRB assays were performed after an additional 48 h. Each point represents the mean±SD of values from four wells. The dotted line on each graph indicates the average absorbance of four wells sampled at time-0 (i.e., the time that the compounds were added).
The human U251 glioblastoma cell line was obtained from the DCT Tumor Repository (National Cancer Institute, Fredrick, Md.). […] All test compounds were dissolved in DMSO and serially diluted in DMSO so that the desired final drug concentrations could be achieved by making a 1/1000 dilution into the culture medium. One day after plating, four wells were assayed to establish a pre-drug (time-0) baseline. At the same time, fresh medium containing test compounds was added to the remaining wells. Control wells received DMSO alone. SRB assays were performed at a 48 h endpoint. To minimize the impact of potential variations in stability among the compounds, medium with test compound was replenished after the first 24 h.

Data set [12] has as its system U251 glioblastoma cells. The experiment in a line: Classification by cellular phenotype induced in cultured cells. The class given is cell-based, human. Conditions: FIG. 72.

In the case of `Cc1[nH]c2ccccc2c1C=CC(=O)c1ccncc1` [MIPP, 3-(2-methyl-1H-indol-3-yl)-1-(4-pyridinyl)-2-propen-1-one], the IC50 with U251 glioblastoma cells [1] (U251, two days, medium and compound replenished after the first day (FIG. 37D), read-out: IC50 (cell viability)) was determined as 4.8 µM; with U251 glioblastoma cells [1] (parental U251, MTT dose-response over a 2-day period (FIG. 20), read-out: IC50, parental cells) it was 3.5 µM; in data set [2] (Homo sapiens, U-251, 48 h, U251-TR, MTT dose-response over a 2-day period (FIG. 20)) it was 6 µM. Further, in the data set with U251 glioblastoma cells [1] (U251, 10 μM, first two days of treatment (FIG. 12)), the “relative cell viability, in words” value is on record as “marked decrease in the relative cell viability”. For the same compound, the “methuosis and cell viability in TMZ-resistant cells, in words” value in data set [2] (FIGS. 41A-41B) was “induced methuosis and reduced cell viability in the TMZ-resistant cells”. For the same compound, the cytotoxicity at 10 μM was 50 to 90% in data set [3], 30% in [4] and 40% in data set [5]. Also, the “cell morphology / vacuolization” value in the data set on U251 glioblastoma cells [6] (1 μM) is “behaved similarly to Compound I when tested at 1 μM”; with U251 glioblastoma cells [6] (10 μM), “induced vacuoles that were larger and more numerous than those induced by Compound I”. Besides, the colony formation result with U251 glioblastoma cells [7] was “non-viable in colony-forming assays; also recorded: reduced colony formation”. In addition, in the data set on U251-TR cells, the “survival (colony formation)” value is on record as “significant decline in survival”. Moreover, the “long-term cell survival (colony formation)” value in data set [8] is “significantly reduced long-term cell survival in all cases”. Further, the “amount of active Rac1” value with active Rac1 is on record as “no significant effects”. Moreover, the “amount of active Arf6” value in the data set with active Arf6 is on record as “no significant effects”. Further, the “amount of active Rab5” value with active Rab5 is recorded as “striking decline in the amount of active Rab5”. Besides, the “amount / activation state of active Rab7” value with active Rab7 was “more than doubling by 24 h”. Moreover, the ATP level entry in the data set on U251 glioblastoma cells [9] was “significant decrease in ATP”.

With `COc1ccc2[nH]c(C(=O)OC(C)C)c(/C=C/C(=O)c3ccncc3)c2c1` [compound 309, isopropyl trans-3-(5-methoxyindol-2-carboxylate-3-yl)-1-(4-pyridinyl)-2-propen-1-one], the sensitivity to hydrolysis result in [10] is “most sensitive to hydrolysis during workup and subsequent manipulation or storage”.

Turning to “3-(2-hydroxypropyl-5-methoxy-indole-3-yl)-1-(4-pyridinyl)-2-propen-1-one [402q]”, the “growth inhibitory (GI) activity, in words” value in the data set on U251 glioblastoma cells [11] is given as “GI values in the low micromolar range”. For the same compound, the “cell morphology / vacuolization” value with U251 glioblastoma cells [6] (concentration not singled out ([…] and 10 μM or as in figure)) was “extensive accumulation of large cytoplasmic vacuoles, with loss of viable adherent cells at concentrations >2.5 μM”. Also, the “class of cellular phenotype” value in the data set with U251 glioblastoma cells [12] is “Class 2”.

As usually defined, the IC50 is the point on the concentration scale where inhibition reaches its midpoint.
